Reference: PMC5323493, “Synthesis and pre-clinical evaluation of a new class of high-affinity ^18F-labeled PSMA ligands for detection of prostate cancer by PET imaging” (European Journal of Nuclear Medicine and Molecular Imaging, 2016)
Read-outs that look alike come from different tables or passages of the source. Marks after values point to notes of the source that are not given here.

Assays:
LNCaP xenograft tumor [1] = experiment: μPET/CT imaging of LNCaP xenograft tumor-bearing mice; assay type: in vivo; conditions: for Max. LNCaP Tumor Uptake Time p.i.: image derived; for Max. LNCaP Tumor Uptake: image derived calculation (ROI), at time of maximum uptake; for route of clearance: from μPET/CT images
Text: (§1) All animal studies were approved by the Institutional Animal Care and Use Committee of Weill Cornell Medicine and were undertaken in accordance with the guidelines set forth by the USPHS Policy on Humane Care and Use of Laboratory Animals. Animals were housed under standard conditions in approved facilities with 12-h light/dark cycles. Food and water was provided ad libitum throughout the course of the studies. Male inbred athymic nu/nu mice were purchased from The Jackson Laboratory. For inoculation in mice, LNCaP cells were suspended at 4 x 10^7 cells/mL in a 1:1 mixture of PBS:Matrigel (BD Biosciences). Each mouse was injected in the left flank with 0.25 mL of the cell suspension. The mice were imaged when the tumors reached approximately 200–400 mm^3, while biodistributions were conducted when tumors were in the range 100–400 mm^3.
Specific activity was greater than 190 GBq/μmol. The mice were imaged by μPET/CT (Inveon™; Siemens Medical Solutions, Inc.) at 1 h, 2 h, 4 h and 6 h p.i. ([^18F]fluorinated compounds) or 1 h and 3 h p.i. ([^68Ga]Ga-PSMA-HBED-CC). Total acquisition time was thirty minutes, and a CT scan was obtained either immediately before or immediately after the acquisition for both anatomical co-registration and attenuation correction. The data were reconstructed using the commercial Inveon™ software supplied by the vendor. Tumor uptake was estimated by drawing a region of interest (ROI).

LNCaP xenograft tumor [2] = conditions: cited from earlier work
PSMA = molecular target: T1, PSMA (Homo sapiens, UniProt Q04609); experiment: competitive binding assay against 99mTc-MIP-1427 on LNCaP cells; conditions: non-radioactive ligands, 1 nM 99mTc-MIP-1427, 1 h
T1 construct: host or cells: LNCaP
Procedure: The human prostate cancer cell line, LNCaP, was obtained from the American Type Culture Collection. Cell culture supplies were from Invitrogen unless otherwise noted. LNCaP cells were maintained in RPMI-1640 medium supplemented with 10 % fetal bovine serum (Hyclone), 4 mM L-glutamine, 1 mM sodium pyruvate, 10 mM N-2-hydroxyethylpiperazine-N-2-ethanesulfonic acid (HEPES), 2.5 mg/mL D-glucose, and 50 μg/mL gentamicin in a humidified incubator at 37 °C/5 % CO2. Cells were removed from flasks for passage or for transfer to 12-well assay plates by incubating them with 0.25 % trypsin/ethylenediaminetetraacetic acid (EDTA).
The 50 % inhibition concentrations (IC50 ) values of the non-radioactive fluorine-containing ligands were determined by screening in a multi-concentration competitive binding assay against ^99mTc- ((7S,12S,16S)-1-(1-(carboxymethyl)-1H-imidazol-2-yl)-2-((1-(carboxymethyl)-1H-imidazol-2-yl)methyl)-9,14-dioxo-2,8,13,15-tetraazaoctadecane-7,12,16,18-tetracarboxylic acid technetium tricarbonyl complex; ^99mTc-MIP-1427) for binding to PSMA on LNCaP cells, according to methods previously described. The LNCaP cells were plated 48 hours prior to the experiment to achieve a density of approximately 5 x 10^5 cells/well (in triplicate) in RPMI-1640 medium supplemented with 0.25 % bovine serum albumin prior to performing the assay. LNCaP cells were incubated for 1 hour with 1 nM ^99mTc-MIP-1427 in serum-free RPMI-1640 medium in the presence of 1–10,000 nM test compounds. Radioactive incubation media was then removed by pipette and the cells were washed twice using 1 mL of ice-cold HEPES buffer. Cells were harvested from the plates and transferred to tubes for radioactive counting using a Packard Cobra II gamma counter. IC50 values were determined by non-linear regression using GraphPad Prism software.

LNCaP xenograft tumor [3] = experiment: ex vivo biodistribution in LNCaP xenograft tumor-bearing mice; conditions: for tumor uptake relative to [68Ga]Ga-PSMA-HBED-CC: at the time of maximum tumor uptake; for Max. LNCaP Tumor Uptake Time p.i. / Max. LNCaP Tumor Uptake: biodistribution; for Max. LNCaP Tumor Uptake / tumor uptake: n = 5
Text: as §1
LNCaP xenograft tumor-bearing mice (n = 5 per time point) were injected via the tail vein with a bolus injection of 370 kBq (10 μCi) of either [^18F]RPS-040 or [^18F]RPS-041. The specific activity of the compounds was 341 GBq/μmol and 391 GBq/μmol, respectively. The mice were euthanized by asphyxiation under isofluorane at 1 h, 2 h and 4 h p.i. An additional set of mice (n = 5) was co-administered [^18F]RPS-040 (370 kBq; 10 μCi) and 2-PMPA (approx. 250 μg; 10 mg/kg) and sacrificed at 1 h p.i. to determine the uptake specificity. A full biodistribution study was conducted on all mice, and tissues were excised, weighed and counted in an automated γ-counter. Tissue time-activity values were expressed as percentage injected dose per gram of tissue (%ID/g). Statistical comparisons were performed using the standard Student’s t test for a 95 % confidence interval.

[4] = 1 h p.i., co-administered with 2-PMPA

T1 sequence (Q04609 whole entry): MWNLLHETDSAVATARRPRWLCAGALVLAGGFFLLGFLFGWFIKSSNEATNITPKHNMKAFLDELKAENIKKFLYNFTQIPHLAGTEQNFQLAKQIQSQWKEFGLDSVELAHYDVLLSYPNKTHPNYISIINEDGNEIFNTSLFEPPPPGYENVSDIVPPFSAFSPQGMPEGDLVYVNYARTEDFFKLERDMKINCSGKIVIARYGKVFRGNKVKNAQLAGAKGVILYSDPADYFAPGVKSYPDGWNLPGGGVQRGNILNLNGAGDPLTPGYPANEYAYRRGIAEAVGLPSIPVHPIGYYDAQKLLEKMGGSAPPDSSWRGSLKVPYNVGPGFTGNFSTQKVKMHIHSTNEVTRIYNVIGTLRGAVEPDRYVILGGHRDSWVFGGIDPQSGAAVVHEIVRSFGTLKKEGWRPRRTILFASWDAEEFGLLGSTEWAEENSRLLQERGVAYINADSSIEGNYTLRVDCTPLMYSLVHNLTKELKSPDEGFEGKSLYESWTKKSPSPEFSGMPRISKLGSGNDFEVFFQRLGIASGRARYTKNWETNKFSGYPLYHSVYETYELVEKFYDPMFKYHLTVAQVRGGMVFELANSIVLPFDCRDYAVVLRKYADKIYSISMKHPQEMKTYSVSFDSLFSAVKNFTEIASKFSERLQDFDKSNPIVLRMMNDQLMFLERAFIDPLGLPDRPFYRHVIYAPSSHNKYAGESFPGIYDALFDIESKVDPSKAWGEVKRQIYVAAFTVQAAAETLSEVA

For `O=C(O)CCC(NC(=O)NC(CCCCNC(=O)c1ccc([18F])nc1)C(=O)O)C(=O)O` (centres unmarked) [DCFPyL, 2-(3-{1-carboxy-5-[(6-[18F]fluoro-pyridine-3-carbonyl)-amino]-pentyl}-ureido)-pentanedioic acid, reference compound], the “Max. LNCaP Tumor Uptake Time p.i.” value (LNCaP xenograft tumor [1]) is given as 1 h, the “Max. LNCaP Tumor Uptake” value (LNCaP xenograft tumor [1]) is given as 5.71 ± 0.61^c %ID/g and the “maximum standardized uptake value (SUVmax)” value (LNCaP xenograft tumor [2]; LNCaP tumor xenografts, 1 h p.i.) is given as 1.1 ± 0.1.
For `O=C(O)CC[C@H](NC(=O)N[C@@H](CCCCNC(=O)Nc1ccccc1OCc1cn(CCF)nn1)C(=O)O)C(=O)O` [RPS-039], the route of clearance (LNCaP xenograft tumor [1]) was “clearance via the hepatobiliary pathway in addition to renal excretion”, the “Max. LNCaP Tumor Uptake Time p.i.” value (LNCaP xenograft tumor [1]) was 2 h and the “Max. LNCaP Tumor Uptake” value (LNCaP xenograft tumor [1]) was 5.89 ± 0.27^c %ID/g. For the same compound, the IC50 (PSMA) was 14 nM.
With `O=C(O)CC[C@H](NC(=O)N[C@@H](CCCCNC(=O)Nc1ccc(OCc2cn(CCF)nn2)cc1)C(=O)O)C(=O)O` [RPS-038] the “Max. LNCaP Tumor Uptake Time p.i.” value (LNCaP xenograft tumor [1]) was 2 h, the “Max. LNCaP Tumor Uptake” value (LNCaP xenograft tumor [1]) was 8.87 ± 0.64^c %ID/g and the IC50 (PSMA) was 21.3 nM.
For `O=C(O)CC[C@H](NC(=O)N[C@@H](CCCCNC(=O)Nc1ccc(I)cc1)C(=O)O)C(=O)O` [MIP-1095], the IC50 (PSMA) is listed as 0.3 nM, the “Max. LNCaP Tumor Uptake” value (LNCaP xenograft tumor [2]) is listed as 34.3 ± 12.7^a %ID/g and the “Max. LNCaP Tumor Uptake Time p.i.” value (LNCaP xenograft tumor [2]) is listed as 4 h.
With `O=C(O)CC[C@H](NC(=O)N[C@@H](CCCCNC(=O)Nc1ccc(-c2cn(CCF)nn2)cc1)C(=O)O)C(=O)O` [RPS-041] the “Max. LNCaP Tumor Uptake” value (LNCaP xenograft tumor [1]) was 12.51 %ID/g, the IC50 (PSMA) was 3.2 nM and the tumor-to-blood ratio (LNCaP xenograft tumor [3]; 1 h p.i.) was 20.78 ± 7.87. For the same compound, the “tumor-to-blood ratio relative to [68Ga]Ga-PSMA-HBED-CC” value (LNCaP xenograft tumor [3]; 1 h p.i.) was “more than two-fold”, the “tumor-to-kidney ratio relative to [68Ga]Ga-PSMA-HBED-CC” value (LNCaP xenograft tumor [3]; 1 h p.i.) was “twelve-fold greater” and the “contrast (tumor-to-background) relative to [18F]RPS-040” value (LNCaP xenograft tumor [3]; 2 h p.i.) was “two-fold greater”. The “uptake in the kidneys” value (LNCaP xenograft tumor [3]; 2 h p.i.) was 23.93 ± 5.45 %ID/g, the “uptake in the liver” value (LNCaP xenograft tumor [3]; 2 h p.i.) was 2.51 ± 0.21 %ID/g and the “uptake in the spleen” value (LNCaP xenograft tumor [3]; 2 h p.i.) was 1.13 ± 0.47 %ID/g. For the same compound, the tumor-to-blood ratio (LNCaP xenograft tumor [3]; 4 h p.i.) was 118.4 ± 69.4, the “tumor uptake relative to [68Ga]Ga-PSMA-HBED-CC” value (LNCaP xenograft tumor [3]) was “nearly two-fold greater” and the “Max. LNCaP Tumor Uptake Time p.i.” value (LNCaP xenograft tumor [3]) was 2 h. For the same compound, the “Max. LNCaP Tumor Uptake” value (LNCaP xenograft tumor [3]; 2 h p.i.) was 10.86 ± 1.03 %ID/g and the “Max. LNCaP Tumor Uptake” value (LNCaP xenograft tumor [3]; 2 h p.i., listed as [^18F]RPS-041) was greater than 10 %ID/g.
For `O=C(O)CC[C@H](NC(=O)N[C@@H](CCCCNC(=O)Nc1ccccc1-c1cn(CCF)nn1)C(=O)O)C(=O)O` [RPS-042], the route of clearance (LNCaP xenograft tumor [1]) was “clearance via the hepatobiliary pathway in addition to renal excretion”, the “Max. LNCaP Tumor Uptake Time p.i.” value (LNCaP xenograft tumor [1]) was 2 h and the “Max. LNCaP Tumor Uptake” value (LNCaP xenograft tumor [1]) was 10.06 ± 1.33^c %ID/g. The IC50 (PSMA) was 10.2 nM.
For `O=C(O)CC[C@H](NC(=O)N[C@@H](CCCCNC(=O)Nc1cccc(-c2cn(CCF)nn2)c1)C(=O)O)C(=O)O` [RPS-040], the “Max. LNCaP Tumor Uptake” value (LNCaP xenograft tumor [1]) was 14.30 %ID/g, the IC50 (PSMA) was 7 nM and the tumor-to-blood ratio (LNCaP xenograft tumor [3]; 1 h p.i.) was 28.8 ± 8.06. For the same compound, the “tumor-to-blood ratio relative to [68Ga]Ga-PSMA-HBED-CC” value (LNCaP xenograft tumor [3]; 1 h p.i.) was “three-fold greater”, the “tumor-to-kidney ratio relative to [68Ga]Ga-PSMA-HBED-CC” value (LNCaP xenograft tumor [3]; 1 h p.i.) was “ten” and the kidneys uptake (LNCaP xenograft tumor [3]; [4]) was 5.95 ± 1.65 %ID/g. It also gave a spleen uptake (LNCaP xenograft tumor [3]; [4]) of 0.32 ± 0.05 %ID/g, a tumor uptake (LNCaP xenograft tumor [3]; 1 h p.i., co-administered with 2-PMPA (10 mg/kg)) of 1.75 ± 0.15 %ID/g and a kidneys uptake (LNCaP xenograft tumor [3]; 1 h p.i., unblocked) of 74.24 ± 10.71 %ID/g. For the same compound, the spleen uptake (LNCaP xenograft tumor [3]; 1 h p.i., unblocked) was 4.97 ± 1.55 %ID/g, the tumor uptake (LNCaP xenograft tumor [3]; 1 h p.i., unblocked) was 12.69 ± 1.56 %ID/g and the “uptake in the kidneys” value (LNCaP xenograft tumor [3]; 2 h p.i.) was 60.94 ± 8.06 %ID/g. For the same compound, the “uptake in the liver” value (LNCaP xenograft tumor [3]; 2 h p.i.) was 4.72 ± 0.93 %ID/g, the “uptake in the spleen” value (LNCaP xenograft tumor [3]; 2 h p.i.) was 3.23 ± 1.26 %ID/g and the tumor-to-blood ratio (LNCaP xenograft tumor [3]; 4 h p.i.) was 92.93 ± 75.67. For the same compound, the “tumor uptake relative to [68Ga]Ga-PSMA-HBED-CC” value (LNCaP xenograft tumor [3]) was “more than two-fold greater”, the “Max. LNCaP Tumor Uptake Time p.i.” value (LNCaP xenograft tumor [3]) was 2 h and the “Max. LNCaP Tumor Uptake” value (LNCaP xenograft tumor [3]; 2 h p.i.) was 14.30 ± 2.49 %ID/g. For the same compound, the “Max. LNCaP Tumor Uptake” value (LNCaP xenograft tumor [3]; 2 h p.i., listed as [^18F]RPS-040) was greater than 10 %ID/g.
With `O=C(O)CC[C@H](NC(=O)N[C@@H](CCCCNC(=O)Nc1cccc(OCc2cn(CCF)nn2)c1)C(=O)O)C(=O)O` [RPS-043] the “Max. LNCaP Tumor Uptake Time p.i.” value (LNCaP xenograft tumor [1]) was 2 h, the “Max. LNCaP Tumor Uptake” value (LNCaP xenograft tumor [1]) was 9.04 ± 1.88^c %ID/g and the IC50 (PSMA) was 36.5 nM.
